Results as given in ChEMBL document CHEMBL4229568, “Discovery of natural flavonoids as activators of Nrf2-mediated defense system: Structure-activity relationship and inhibition of intracellular oxidative insults” (Bioorg Med Chem, 2018).
The source made the active and inactive calls. No cut-off for these calls is given here.

Columns and labels:
[1] = target: T1, Nuclear factor erythroid 2-related factor 2 (Homo sapiens) (UniProt Q16236); assay: Activation of Nrf2 in human BEAS2B cells assessed as upregulation of NQO1 protein expression at 6.25 uM pretreated for 1 hr followed by co-treatment with p38 MAPK inhibitor SB203580 for 18 hrs by immunoblot analysis; assay type: cell-based
T1 sequence (whole entry): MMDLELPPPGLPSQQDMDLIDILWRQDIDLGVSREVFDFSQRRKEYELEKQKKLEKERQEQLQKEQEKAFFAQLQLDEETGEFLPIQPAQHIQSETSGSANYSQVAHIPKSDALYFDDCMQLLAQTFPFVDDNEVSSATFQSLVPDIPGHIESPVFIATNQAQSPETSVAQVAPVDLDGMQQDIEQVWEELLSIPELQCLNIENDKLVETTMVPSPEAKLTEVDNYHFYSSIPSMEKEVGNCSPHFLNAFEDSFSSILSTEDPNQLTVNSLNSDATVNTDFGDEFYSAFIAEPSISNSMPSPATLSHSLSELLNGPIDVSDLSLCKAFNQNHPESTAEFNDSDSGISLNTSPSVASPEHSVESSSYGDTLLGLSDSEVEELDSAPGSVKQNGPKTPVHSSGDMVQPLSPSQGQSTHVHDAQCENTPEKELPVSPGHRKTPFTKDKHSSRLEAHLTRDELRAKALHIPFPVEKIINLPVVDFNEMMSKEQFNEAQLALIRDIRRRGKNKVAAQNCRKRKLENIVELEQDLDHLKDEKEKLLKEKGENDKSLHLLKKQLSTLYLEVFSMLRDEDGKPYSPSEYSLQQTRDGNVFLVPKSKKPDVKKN

[2] = target: T1, Nuclear factor erythroid 2-related factor 2 (Homo sapiens); assay: Activation of Nrf2 in human BEAS2B cells assessed as upregulation of gamma-GCS protein expression at 50 to 100 uM after 18 hrs by immunoblot analysis; assay type: cell-based
[3] = target: T1, Nuclear factor erythroid 2-related factor 2 (Homo sapiens); assay: Activation of Nrf2 in human BEAS2B cells assessed as upregulation of NQO1 protein expression at 6.25 uM after 48 hrs by immunoblot analysis; assay type: cell-based
[4] = target: T1, Nuclear factor erythroid 2-related factor 2 (Homo sapiens); assay: Activation of Nrf2 in human BEAS2B cells assessed as upregulation of Nrf2 protein expression at 6.25 uM after 8 to 24 hrs by immunoblot analysis; assay type: cell-based
[5] = target: T1, Nuclear factor erythroid 2-related factor 2 (Homo sapiens); assay: Activation of Nrf2 in human BEAS2B cells assessed as upregulation of NQO1 protein expression at 6.25 uM after 8 to 24 hrs by immunoblot analysis; assay type: cell-based
[6] = target: T1, Nuclear factor erythroid 2-related factor 2 (Homo sapiens); assay: Activation of Nrf2 in human BEAS2B cells assessed as upregulation of Nrf2 protein expression at 6.25 uM pretreated for 1 hr followed by co-treatment with PKC inhibitor Ro-31-8220 for 18 hrs by immunoblot analysis; assay type: cell-based
[7] = target: T1, Nuclear factor erythroid 2-related factor 2 (Homo sapiens); assay: Activation of Nrf2 in human MDA-MB-231 cells assessed as upregulation of NQO1 protein expression after 16 hrs by immunoblot analysis; assay type: cell-based
[8] = target: T1, Nuclear factor erythroid 2-related factor 2 (Homo sapiens); assay: Activation of Nrf2 in human BEAS2B cells assessed as upregulation of NQO1 protein expression at 6.25 uM pretreated for 1 hr followed by co-treatment with PKC inhibitor Go6983 for 18 hrs by immunoblot analysis; assay type: cell-based
[9] = target: T2, Nuclear factor erythroid 2-related factor 2 (Mus musculus) (UniProt Q60795); assay: Activation of Nrf2 in mouse Heap1c1c7 cells assessed as induction of NAD(P)H:quinone reductase activity at 6.25 uM pretreated for 1 hr followed by co-treatment with PI3K inhibitor LY294002 for 24 hrs; assay type: cell-based
T2 sequence (whole entry): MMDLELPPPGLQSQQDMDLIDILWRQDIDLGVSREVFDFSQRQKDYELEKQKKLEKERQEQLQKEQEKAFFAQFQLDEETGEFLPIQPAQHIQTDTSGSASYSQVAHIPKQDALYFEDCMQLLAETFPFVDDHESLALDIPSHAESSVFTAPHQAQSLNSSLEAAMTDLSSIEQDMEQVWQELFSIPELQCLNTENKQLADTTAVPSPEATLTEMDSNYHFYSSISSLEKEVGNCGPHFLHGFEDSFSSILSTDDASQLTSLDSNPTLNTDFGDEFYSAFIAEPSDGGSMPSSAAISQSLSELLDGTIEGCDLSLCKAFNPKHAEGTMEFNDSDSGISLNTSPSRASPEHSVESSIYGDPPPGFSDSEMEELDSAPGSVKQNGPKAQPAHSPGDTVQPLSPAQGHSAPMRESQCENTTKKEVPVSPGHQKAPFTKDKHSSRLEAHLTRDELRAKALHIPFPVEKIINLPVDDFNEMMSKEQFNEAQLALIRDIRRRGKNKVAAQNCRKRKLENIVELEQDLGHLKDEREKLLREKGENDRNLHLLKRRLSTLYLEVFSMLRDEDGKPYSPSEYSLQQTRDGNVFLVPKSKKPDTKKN

[10] = target: T1, Nuclear factor erythroid 2-related factor 2 (Homo sapiens); assay: Activation of Nrf2 in human BEAS2B cells assessed as upregulation of Nrf2 protein expression at 6.25 uM pretreated for 1 hr followed by co-treatment with PKC inhibitor Go6983 for 18 hrs by immunoblot analysis; assay type: cell-based
[11] = target: T1, Nuclear factor erythroid 2-related factor 2 (Homo sapiens); assay: Activation of Nrf2 in human BEAS2B cells assessed as upregulation of Nrf2 protein expression at 6.25 uM pretreated for 1 hr followed by co-treatment with p38 MAPK inhibitor SB203580 for 18 hrs by immunoblot analysis; assay type: cell-based
[12] = tested on: BEAS-2B; assay: Cytoprotective activity in human BEAS2B cells assessed as decrease in As(+3)-induced cell apoptosis at 6.25 uM preincubated for 8 hrs followed by As(+3) challenge and measured after 24 hrs by annexin V-FITC/propidium iodide staining-based flow cytometric method; assay type: functional
[13] = target: T2, Nuclear factor erythroid 2-related factor 2 (Mus musculus); assay: Activation of Nrf2 in mouse Heap1c1c7 cells assessed as induction of NAD(P)H:quinone reductase activity at 6.25 uM pretreated for 1 hr followed by co-treatment with PI3K inhibitor wortmannin for 24 hrs; assay type: cell-based
[14] = target: T2, Nuclear factor erythroid 2-related factor 2 (Mus musculus); assay: Activation of Nrf2 in mouse Heap1c1c7 cells assessed as induction of NAD(P)H:quinone reductase activity at 6.25 uM pretreated for 1 hr followed by co-treatment with MEK1/2 inhibitor PD98059 for 24 hrs; assay type: cell-based
[15] = target: T1, Nuclear factor erythroid 2-related factor 2 (Homo sapiens); assay: Activation of Nrf2 in human BEAS2B cells assessed as upregulation of Nrf2 protein expression at 50 to 100 uM after 18 hrs by immunoblot analysis; assay type: cell-based
[16] = target: T2, Nuclear factor erythroid 2-related factor 2 (Mus musculus); assay: Activation of Nrf2 in mouse Heap1c1c7 cells assessed as induction of NAD(P)H:quinone reductase activity at 6.25 uM pretreated for 1 hr followed by co-treatment with MEK1/2 inhibitor Uo126 for 24 hrs; assay type: cell-based
[17] = target: T1, Nuclear factor erythroid 2-related factor 2 (Homo sapiens); assay: Activation of Nrf2 in human BEAS2B cells assessed as upregulation of Nrf2 protein expression at 3.12 to 25 uM after 12 hrs by immunoblot analysis; assay type: cell-based
[18] = target: T1, Nuclear factor erythroid 2-related factor 2 (Homo sapiens); assay: Activation of Nrf2 in human BEAS2B cells assessed as upregulation of gamma-GCS protein expression at 0.31 to 20 uM after 18 hrs by immunoblot analysis; assay type: cell-based
[19] = target: T1, Nuclear factor erythroid 2-related factor 2 (Homo sapiens); assay: Activation of Nrf2 in human MDA-MB-231 cells assessed as upregulation of Nrf2 protein expression after 16 hrs by immunoblot analysis; assay type: cell-based
[20] = tested on: BEAS-2B; assay: Effect on reactive oxygen species production in human BEAS2B cells at 6.25 uM treated for 8 hrs; assay type: ADME, cell-based

- Activity [1]: inactive
- Activity [2]: inactive
- Activity [3]: inactive
- Activity [4]: Active
- Activity [5]: Active
- Activity [6]: inactive
- Activity [7]: Dose-dependent effect
- Activity [8]: inactive
- Activity [9]: inactive
- Activity [10]: inactive
- Activity [11]: inactive
- Activity [13]: Active
- Activity [14]: inactive
- Activity [15]: inactive
- Activity [16]: Active
- Activity [17]: Active
- Activity [18]: Dose-dependent effect
- Activity [19]: Dose-dependent effect
SMILES: COc1ccc(-c2coc3cc(OC)cc(O)c3c2=O)cc1 [4',7-DIMETHOXY-5-HYDROXYGENISTEIN]
- Activity [12]: Active
- Activity [20]: Non-Toxic
